According to PMC11721736, “Synthesis of Novel Benzothiazole–Profen Hybrid Amides as Potential NSAID Candidates” (Molecules, 2024):
Where “and” joins values, the source holds several entries; their conditions need not be identical. Equal values may be shown once.

What was measured:
[1] = Hydrogen peroxide scavenging activity (HPSA); details: 10 min at 37 °C, absorbance at 230 nm
Procedure: The Manolov et al. approach was used to evaluate the capacity to scavenge hydrogen peroxide. A 43 mM solution of H2O2 was prepared in a potassium phosphate buffer solution (0.2 M, pH 7.4). The analysis of the samples was carried out as follows: in test tubes, 0.6 mL H2O2 (43 mM), 1 mL sample/standard of different concentrations (20–1000 µg/mL), and 2.4 mL potassium phosphate buffer solution were mixed. The mixture was stirred and incubated in the dark for 10 min at 37 °C. Absorbance was measured at 230 nm with a spectrophotometer (Camspec M508, Leeds, UK) against a blank solution containing phosphate buffer and H2O2 without the sample. Ascorbic acid and quercetin were used as standards. The percentage HPSA of the samples was evaluated by comparing them to a blank sample and was calculated using the following formula:(1) I,%(HPSA)=Ablank−(ATS−ACS)/Ablank×100 where Ablank is the absorbance of the blank sample, ACS is the absorbance of the control sample, and ATS is the absorbance of the test sample.

[2] = Hydroxyl radical scavenging activity (HRSA); details: 1 h at 37 °C, absorbance at 510 nm
Procedure: Hydroxyl radical scavenging activities of different fractions of 2-ABT-profenes were determined according to the method described by Guo [47]. The scavenging of hydroxyl radicals was performed as follows: 0.3 mL sodium salicylate (20 mM), 1 mL FeSO4 (1.5 mM), 1 mL sample/standard of different concentrations (20–1000 µg/mL), and 0.7 mL H2O2 (6 mM) were mixed immediately. Then, the reaction tubes were put in a 37 °C water bath for 1 h, and the absorbance of the mixture was recorded at 510 nm against a blank. We used standards with proven high antioxidant activity such as ascorbic acid and quercetin. The hydroxyl radical scavenging ability was calculated as follows:(2) I,%(HRSA)=Ablank−Asample/Ablank×100 where Ablank is the absorbance without samples and Asample is the absorbance in the presence of the samples.

[3] = Lipophilicity as RM values by reversed-phase thin-layer chromatography; format: physicochemical; details: reversed-phase TLC, dimensionless
From the text: Lipophilicity can be evaluated through calculations or experimental methods. In our study, we measured the lipophilicity of the synthesized 2-ABT derivatives using a practical method: reversed-phase thin-layer chromatography, as described by Hadjipavlou-Litina. The lipophilicity increased in the following order based on the experimentally obtained RM values: 3a (1.629) < […] < 3e (1.736) < 3b (1.941) < 3c (2.02). Compound 3c is the most lipophilic experimentally, followed by 3b, while 3a is the least lipophilic.
The determination of lipophilicity of 2-ABT derivatives was estimated according to the method reported by Pontiki and Hadjipavlou-Litina.

human albumin = target: T1, human albumin (Homo sapiens, UniProt P02768); experiment: Inhibition of albumin denaturation (IAD), in vitro anti-inflammatory activity; format: biochemical; details: human albumin 1%, heated at 70 °C for 15 min, turbidity at 660 nm; read-out: IAD IC50 ± SD (converted)
T1 construct: purchased BB-NCIPD Ltd., Sofia, Bulgaria Human albumin 20%—BB, 200 g/L
T1 sequence (P02768 25-609): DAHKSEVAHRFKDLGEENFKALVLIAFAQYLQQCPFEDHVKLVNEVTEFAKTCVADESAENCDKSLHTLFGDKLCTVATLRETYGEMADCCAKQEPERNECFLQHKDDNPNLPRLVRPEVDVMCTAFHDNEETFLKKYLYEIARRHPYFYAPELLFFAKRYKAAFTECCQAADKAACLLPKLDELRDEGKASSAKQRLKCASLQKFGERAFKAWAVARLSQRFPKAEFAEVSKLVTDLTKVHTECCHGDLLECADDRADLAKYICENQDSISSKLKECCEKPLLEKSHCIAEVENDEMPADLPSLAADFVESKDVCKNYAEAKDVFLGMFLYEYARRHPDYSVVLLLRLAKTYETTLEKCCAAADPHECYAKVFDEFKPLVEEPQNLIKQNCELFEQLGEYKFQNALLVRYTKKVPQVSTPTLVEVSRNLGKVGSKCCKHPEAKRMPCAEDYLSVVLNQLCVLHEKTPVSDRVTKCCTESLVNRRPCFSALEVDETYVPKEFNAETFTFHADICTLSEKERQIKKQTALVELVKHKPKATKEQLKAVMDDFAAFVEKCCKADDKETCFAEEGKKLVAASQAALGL
Procedure: In vitro analysis of anti-inflammatory activity was assessed as the inhibition of albumin denaturation (IAD). The analysis was performed according to Manolov’s method, with minor modifications. The experiment was performed with human albumin. The solution of albumin (1%) was prepared in distilled water (pH 7.4). Test samples/standards were first dissolved in 1.2 mL of DMSO and then supplemented with 1% Tween 80 in PBS so that the final concentration of the stock solution was 1000 μg/mL. Then, a series of working solutions with different concentrations (20–500 μg/mL) in 1% Tween 80/PBS were prepared. The reaction mixture contained a 2 mL test sample/standard of different concentrations and 1 mL albumin (1%). The mixture was incubated at 37 °C for 15 min and then heated at 70 °C for 15 min in a water bath. After cooling, the turbidity was measured at 660 nm with a spectrophotometer (Camspec M508, Leeds, UK). Ibuprofen was used as a standard. The experiment was performed three times. The percentage inhibition of albumin denaturation (IAD) was calculated against the control. The control sample consisted of the same concentration of albumin dissolved in distilled water. (3) %IAD=Ablank−Asample/Ablank×100

SMILES	HPSA IC50 ± SD [1] [µg/mL]	HRSA IC50 ± SD [2] [µg/mL]	RM ± SD [3]	IC50 (human albumin) [µM]
O=c1c(O)c(-c2ccc(O)c(O)c2)oc2cc(O)cc(O)c12 [Qrc, quercetin, reference compound]	69.25 ± 1.82	149.18 ± 9.27		
O=C1O[C@H]([C@@H](O)CO)C(O)=C1O [AA, ascorbic acid, reference compound]	24.84 ± 0.35	129.84 ± 4.52		
CC(C)Cc1ccc(C(C)C(=O)O)cc1 (stereo not shown) [Ibu, ibuprofen, reference compound]			1.110 ± 0.010	

Next, values leading:

HPSA IC50 ± SD [1] [µg/mL]	HRSA IC50 ± SD [2] [µg/mL]	RM ± SD [3]	IC50 (human albumin) [µM]	SMILES
63.05 ± 0.28	429.59 ± 21.49	1.736 ± 0.015 and 1.736	157	CC(C(=O)Nc1nc2ccccc2s1)c1ccc(-c2ccccc2)c(F)c1 (stereo not shown) [Compound 3e, N-(benzo[d]thiazol-2-yl)-2-(2-fluoro-[1,1′-biphenyl]-4-yl)propanamide]
67.22 ± 0.45	551.44 ± 28.48	1.755 ± 0.014 and 1.755	160	CC(C(=O)Nc1nc2ccccc2s1)c1ccc2c(c1)[nH]c1ccc(Cl)cc12 (stereo not shown) [Compound 3d, N-(benzo[d]thiazol-2-yl)-2-(6-chloro-9H-carbazol-2-yl)propanamide]
67.71	317.91 ± 11.61	2.020 ± 0.046 and 2.02	178	COc1ccc2cc(C(C)C(=O)Nc3nc4ccccc4s3)ccc2c1 (stereo not shown) [Compound 3c, N-(benzo[d]thiazol-2-yl)-2-(6-methoxynaphthalen-2-yl)propanamide]
60.24	285.13 ± 27.44	1.941 ± 0.010 and 1.941	141	CC(C(=O)Nc1nc2ccccc2s1)c1cccc(C(=O)c2ccccc2)c1 (stereo not shown) [Compound 3b, N-(benzo[d]thiazol-2-yl)-2-(3-benzoylphenyl)propanamide]
65.51 ± 0.30	375.06 ± 14.62	1.629 ± 0.009 and 1.629	473	CC(C)Cc1ccc(C(C)C(=O)Nc2nc3ccccc3s2)cc1 (stereo not shown) [Compound 3a, N-(benzo[d]thiazol-2-yl)-2-(4-isobutylphenyl)propanamide]
